Columns and labels:
Format in all cases: cell-based
A549 = assay: Extended test against tumor cell lines (ATPlite); conditions: A549 (lung cancer), 72 hours
Method: (§1) The compounds of Examples 36/37/40/47/49 were used to carry out extended test against tumor cell lines, wherein 12 kinds of cells were selected, including liver cancer cells, gastric cancer cells, pancreatic cancer cells, colorectal cancer cells, lung cancer cells and normal cells, which were shown in Table 12:
(§2) A 100 mm culture dish with overgrown adherent cells was digested with 1 ml 0.25% trypsin (GIBCO) at 37° C. for 5 min, and the reaction was terminated with 2 ml culture medium (containing 10% FBS, GIBCO). The cells were scattered and collected, after counting, diluted to 1×10^5 cells/ml, and seeded into a 96-well plate at 50 μl/well, 5000 cells/well, excluding the peripheral circle of wells in which no cell was added, but PBS was added, 54 wells in total, and then incubated at 37° C. for 24 hours for adhering.
(§3) The test sample was diluted to final concentration of 4, 1, 0.25, 0.063, 0.016 μM, culture medium was filled in control well, 3 parellel wells were set for each concentration, 50 μl each well, followed by incubation at 37° C. for 72 hours.
(§4) 3) Test after incubation at 37° C. for 72 hours: 50 μL of ATPlite kitsubstrate solution was added in each well, and vibrated for 3 min, followed by placing aside in darkness for 10 min, and then supernatant 100 μl/well was taken and placed on a luminescence test plate; the luminescence test plate that has been fully incubated was placed in a luminescence test instrument, to read luminescence value.
(§5) Cell survival rate (%)=Experimental group RLU/control group RLU×100%. The experimental data were subjected to data analysis and processing by utilizing GraphPad software.

HepG2 = assay: Extended test against tumor cell lines (ATPlite); conditions: HepG2 (liver cancer), 72 hours
Method: as §1, §2, §3, §4, §5

AsPC-1 = assay: Extended test against tumor cell lines (ATPlite); conditions: AsPC-1 (pancreatic cancer), 72 hours
Method: as §1, §2, §3, §4, §5

[1] = system: WI-38 (human embryonic lung fibroblast); assay: Extended test against tumor cell lines (ATPlite); conditions: WI-38 (normal cells), 72 hours
Method: as §1, §2, §3, §4, §5

COLO205 = assay: Extended test against tumor cell lines (ATPlite); conditions: COLO205 (colorectal cancer), 72 hours
Method: as §1, §2, §3, §4, §5

BGC823 = assay: Extended test against tumor cell lines (ATPlite); conditions: BGC823 (gastric cancer), 72 hours
Method: as §1, §2, §3, §4, §5

Huh-7 = assay: Extended test against tumor cell lines (ATPlite); conditions: Huh-7 (liver cancer), 72 hours
Method: as §1, §2, §3, §4, §5

SK-BR3 = assay: Antitumor bioactivity evaluation, breast cancer cells (ATPlite); conditions: Homo sapiens, SK-BR-3; test sample 5 μM, 72 hours; read-out: Inhibitory Rate % SK-BR3
Procedure, shortened: (§6)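 After plating 5000 cells per well and letting them attach for 24 h, compounds are added at a single 5 μM final concentration, either alone or together with lapatinib at 1 μM. Cultures incubate 72 h at 37 °C before ATP content is measured by luminescence.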

MDA-MB-453 = assay: as above; conditions: Homo sapiens, test sample 5 μM, 72 hours, read-out: Inhibitory Rate % MDA-MB-453
Procedure, shortened: as §6

MDA-MB-361 = assay: as above; conditions: Homo sapiens, test sample 5 μM, 72 hours, read-out: Inhibitory Rate % MDA-MB-361
Procedure, shortened: as §6

BT474 = assay: as above; conditions: Homo sapiens, BT-474; for inhibition at 5 µM: test sample 5 μM, 72 hours, read-out: Inhibitory Rate % BT474
Procedure, shortened: as §6

SK/Lap^R1.0 = assay: as above; conditions: Homo sapiens; test sample 5 μM, 72 hours; read-out: Inhibitory Rate % SKLap^R1.0
Procedure, shortened: as §6

[2] = system: six human breast cancer cell strains; assay: Antitumor activity evaluation, statements on the whole panel; conditions: compound alone
Description: In antitumor activity evaluation, six human breast cancer cell strains are selected, including BT474, SK-BR3 which are human breast cancer cell strains sensitive to lapatinib, BT/Lap^R1.0, SK/Lap^R1.0 which are human breast cancer cell strains with secondary resistance to lapatinib, MDA-MB-361, MDA-MB-453 which are human breast cancer cell strains with natural resistance tolapatinib.
Antitumor bioactivity evaluation of the compounds of Examples according to the method described below
as §2, with “Cells plating: a” for “A”, “60” for “54”
Addition of the compound and lapatinib: the test sample was diluted to a final concentration of 5 μM, and the culture medium with the corresponding compound solvent concentration was filled in the control well, the compound solvent concentration was kept consistent in each well, 5 parellel wells were set for each concentration, 25 μl each well, 25 μl culture medium (in combined group, 25 μl lapatinib was added till a final concentration of 1 μM) supplemented, followed by incubation at 37° C. for 72 hours.
as §4, with “Test” for “3) Test”, “ATPlite kit substrate” for “ATPlite kitsubstrate”, “on aluminescence” for “on a luminescence”
1. Cell survival rate (%)=Experimental group RLU/control group RLU×100%. The experimental data were subjected to data analysis and processing by utilizing GraphPad software.

[3] = system: tumor cells and normal cells (12 kinds of cells); assay: Extended test against tumor cell lines, statements on the whole panel; conditions: 12 kinds of cells, 0.016-4 μM, 72 hours
Method: as §1, §2, §3, §4, §5

CSc1nccc(N2CCC(N(C)Cc3ccc(Cl)cc3Cl)CC2)n1 [Example 40, N-methyl-N-(2,4-dichlorobenzyl)-N-[1-(2-methylthiopyrimidin-4-yl)piperidin-4-yl]amine]
Survival rate (A549; 0.016 μM): 97.1%
Survival rate (A549; 0.063 μM): 95.9%
Survival rate (A549; 0.25 μM): 95.3%
Survival rate (A549; 1 μM): 81.2%
Survival rate (A549; 4 μM): 38%
Survival rate (HepG2; 0.016 μM): 94.7%
Survival rate (HepG2; 0.063 μM): 94.8%
Survival rate (HepG2; 0.25 μM): 86.4%
Survival rate (HepG2; 1 μM): 55.3%
Survival rate (HepG2; 4 μM): 4.5%
Survival rate (AsPC-1; 0.016 μM): 97.8%
Survival rate (AsPC-1; 0.063 μM): 96.1%
Survival rate (AsPC-1; 0.25 μM): 93.1%
Survival rate (AsPC-1; 1 μM): 83.3%
Survival rate (AsPC-1; 4 μM): 51.2%
Survival rate ([1]; 0.016 μM): 99.3%
Survival rate ([1]; 0.063 μM): 97.3%
Survival rate ([1]; 0.25 μM): 95.8%
Survival rate ([1]; 1 μM): 92.3%
Survival rate ([1]; 4 μM): 64.2%
Survival rate (COLO205; 0.016 μM): 96.2%
Survival rate (COLO205; 0.063 μM): 98.2%
Survival rate (COLO205; 0.25 μM): 98.6%
Survival rate (COLO205; 1 μM): 91.9%
Survival rate (COLO205; 4 μM): 30.3%
Survival rate (BGC823; 0.016 μM): 98.3%
Survival rate (BGC823; 0.063 μM): 103.1%
Survival rate (BGC823; 0.25 μM): 91.3%
Survival rate (BGC823; 1 μM): 73.7%
Survival rate (BGC823; 4 μM): 21.1%
Survival rate (Huh-7; 0.016 μM): 93.8%
Survival rate (Huh-7; 0.063 μM): 90.7%
Survival rate (Huh-7; 0.25 μM): 87.3%
Survival rate (Huh-7; 1 μM): 65.2%
Survival rate (Huh-7; 4 μM): 14.3%
inhibition at 5 µM (SK-BR3): 87.6%
inhibition at 5 µM (MDA-MB-453): 68.7%
inhibition at 5 µM (MDA-MB-361): 64.1%
IC50 (BT474): 1.62 µM
inhibition at 5 µM (BT474): 74.2%
inhibition at 5 µM (SK/Lap^R1.0): 80.7%
growth inhibition to the six human breast cancer cell strains [2]: relatively significant growth inhibition
inhibition of tumor cells versus cytotoxicity to normal cells [3]: slightly stronger inhibition to liver cancer than that to other tumor cells, and exhibited cytotoxicity to normal cells lower than inhibition to tumor cells

CSc1nccc(N2CCC(N(C)Cc3ccc(C#N)cc3)CC2)n1 [Example 36, N-methyl-N-(4-cyanobenzyl)-N-[1-(2-methylthiopyrimidin-4-yl)piperidin-4-yl]amine]
Survival rate (A549; 0.016 μM): 98.9%
Survival rate (A549; 0.063 μM): 97.6%
Survival rate (A549; 0.25 μM): 95.3%
Survival rate (A549; 1 μM): 75.8%
Survival rate (A549; 4 μM): 46.5%
Survival rate (HepG2; 0.016 μM): 98.8%
Survival rate (HepG2; 0.063 μM): 97%
Survival rate (HepG2; 0.25 μM): 94.7%
Survival rate (HepG2; 1 μM): 77.1%
Survival rate (HepG2; 4 μM): 4.5%
Survival rate (AsPC-1; 0.016 μM): 96.8%
Survival rate (AsPC-1; 0.063 μM): 99.4%
Survival rate (AsPC-1; 0.25 μM): 94.9%
Survival rate (AsPC-1; 1 μM): 90.0%
Survival rate (AsPC-1; 4 μM): 57.2%
Survival rate ([1]; 0.016 μM): 93.9%
Survival rate ([1]; 0.063 μM): 93.7%
Survival rate ([1]; 0.25 μM): 91.5%
Survival rate ([1]; 1 μM): 82.0%
Survival rate ([1]; 4 μM): 51.1%
Survival rate (COLO205; 0.016 μM): 96.7%
Survival rate (COLO205; 0.063 μM): 96.9%
Survival rate (COLO205; 0.25 μM): 95.3%
Survival rate (COLO205; 1 μM): 84.5%
Survival rate (COLO205; 4 μM): 4.9%
Survival rate (BGC823; 0.016 μM): 96.6%
Survival rate (BGC823; 0.063 μM): 93.2%
Survival rate (BGC823; 0.25 μM): 89.1%
Survival rate (BGC823; 1 μM): 74.3%
Survival rate (BGC823; 4 μM): 27.7%
Survival rate (Huh-7; 0.016 μM): 90.9%
Survival rate (Huh-7; 0.063 μM): 88.2%
Survival rate (Huh-7; 0.25 μM): 83.0%
Survival rate (Huh-7; 1 μM): 65.4%
Survival rate (Huh-7; 4 μM): 14.3%
inhibition at 5 µM (SK-BR3): 83.4%
inhibition at 5 µM (MDA-MB-453): 82.4%
inhibition at 5 µM (MDA-MB-361): 46.9%
IC50 (BT474): 1.41 µM
inhibition at 5 µM (BT474): 75.5%
inhibition at 5 µM (SK/Lap^R1.0): 86.1%
growth inhibition to the six human breast cancer cell strains [2]: relatively significant growth inhibition
inhibition of tumor cells versus cytotoxicity to normal cells [3]: certain inhibition and cytotoxicity to either tumor cells or normal cells, without significant difference
